Measurements taken from patent publication US20230190680A1, “METHODS AND COMPOSITIONS FOR TREATING AN RNA VIRUS INDUCED DISEASE” (Golden Biotechnology Corporation, priority 2020, published 2023).
Like-named read-outs stand apart in the source and are kept apart here.

Assays:
HBeAg = assay: ELISA of HBeAg in HepG2.2.15 supernatants; assay type: cell-based, HBV; conditions: 72 hours, FIG. 1A
Description: (§1) Cell Culture. HepG2.2.15 cell line was cultured in MEM medium, supplemented with 10% fetal bovine serum, penicillin (100 IU/ml; Gibco, USA), and streptomycin (100 ug/ml; Gibco, USA) in 5% CO2 incubator at 37° C. This is a cell line derived from human hepatoblastoma cell line HepG2 and characterized by having stable HBV expression. Qs5 is HBV-producing rat hepatoma cell lines.
(§2) Lamivudine (3TC) and Adefovir dipivoxil (Adv) are marketed for HBV treatment as positive controls. Antroquinonol (G4) and Lamivudine (3TC) dissolved in dimethylsulfoxide (DMSO) only for stock solutions and diluted in culture medium. The final concentration of DMSO in cells is less 0.1%. Drugs treated with 2×10^4 cells in 96-well plate for 72 hours.
(§3) The levels of HBsAg and HBeAg in HepG2.2.15 supernatants were measured using their commercial enzyme-linked immunosorbent assay (ELISA) kits following the manufacturer’s instructions.
(§4) To examine the effect of Antroquinonol on HBV protein expression, including surface antigen (HBsAg) and e antigen (HBeAg), ELISA assay was used to quantify HBV replication. The study results have shown that Compound 1 (i.e., Antroquinonol) reduces HBeAg (see FIG. 1A) and HBsAg (see FIG. 1B) expression levels. Compound 1 in comparison with Lamivudine, has shown reduction in the expression levels of the two major HBV biomarkers, HBeAg and HBsAg by 50% and 40% respectively.

HBsAg = assay: ELISA of HBsAg in HepG2.2.15 supernatants; assay type: cell-based, HBV; conditions: 72 hours, FIG. 1B
Description: as §1, §2, §3, §4

HCV RNA = HCV RNA activity (FIG. 2B); assay type: cell-based
HepG2.2.15 cells = assay: MTT assay (cytotoxicity); assay type: cell-based, human
Description: as §1
MTT assay. 1.25 ×10^5 cells/well were seeded onto 24-well plate. Cells were incubated with varying concentrations of G4 and 3TC (1, 5, 25, 50, 100 and 200 uM) for 72 hours. 1 mg/ml 3-(4, 5-dimethylthiazol-2-yl)-2, 5- diphenyltetrazolium- bromide (MTT) was added to each well and incubated for 2 hours at 37° C. to allow formation of the colored crystals. Medium was replaced with DMSO and plates were incubated for 15 minutes at room temperature with shaking to dissolve the crystals. The absorbance was measured by the microplate reader. The optical density was measured at 490 nm.

NF-kB = assay: Renal inflammation, NF-kB activation model (FIG. 7): NF-kB expression; assay type: in vivo
Nrf-2 = assay: Renal inflammation, NF-kB activation model (FIG. 7): nuclear Nrf-2 expression; assay type: in vivo
MCP-1 = assay: Local renal inflammation marker MCP-1 (FIG. 8); assay type: in vivo
IL-6 = assay: Local renal inflammation marker IL-6 (FIG. 8); assay type: in vivo
CD3 = assay: Local renal inflammation marker CD3 (FIG. 8); assay type: in vivo
SARS-CoV-2 = assay type: cell-based; conditions: Vero E6 cells, MOI = 0.1, 24 h, FIG. 10
CXCL10 = assay type: cell-based; conditions: DMSO 9.04 fold
IL6 = assay type: cell-based; conditions: 10 µM; DMSO 47.81-fold; FIG. 12B
IL18 = assay type: cell-based; conditions: 20 µM, DMSO 1.36-fold
TGFB1 = assay type: cell-based; conditions: 20 µM, DMSO 2.59-fold
COL4A1 = assay type: cell-based; conditions: 20 µM; DMSO 2.37-fold; FIG. 13B

## COC1=C(OC)C(O)C(C/C=C(\C)CC/C=C(\C)CCC=C(C)C)C(C)C1=O (stereo not drawn) [Compound 1, 4-hydroxy-2,3-dimethoxy-6-methyl-5-(3,7,11-trimethyldodeca-2,6,10-trienyl)cyclohex-2-enone]
HBeAg
  reduction in the expression level of HBeAg: 50%
HBsAg
  reduction in the expression level of HBsAg: 40%
HCV RNA
  reduction in HCV RNA activity: 95%
HepG2.2.15 cells; over 25 uM
  cytotoxicity by MTT assay: cytotoxicity effects
HepG2.2.15 cells; up to exposure to 5 uM
  cytotoxicity by MTT assay: No apparent cytotoxicity
NF-kB
  suppression in NF-kB expression: 36%
Nrf-2
  enhancement in nuclear Nrf-2 expression: 2 times
MCP-1
  suppression of MCP-1 expression: around 50%
IL-6
  suppression of IL-6 expression: ~57%
CD3
  suppression of CD3 expression: ~66%
SARS-CoV-2; 10 µM
  reduction of SARS-CoV-2 concentration: 91.20%
SARS-CoV-2; 20 µM
  reduction of SARS-CoV-2 concentration: 99.93%
CXCL10; 10 µM
  change in CXCL10 expression: 3.40 fold
CXCL10; 20 µM
  change in CXCL10 expression: 1.01 fold
IL6
  change in IL6 expression: 11.88 fold
IL18
  change in IL18 expression: 0.89 fold
TGFB1
  change in TGFB1 expression: 0.99 fold
COL4A1
  change in COL4A1 expression: 0.65 fold
